Values quoted from earlier work, collected in US20030133985A1, “Formulation of an erodible, gastric retentive oral dosage form using in vitro disintegration test data” (priority 2001, published 2003).

Conditions: at 20° C.

SMILES: CC1(C)O[C@@H]2[C@@H](CO[C@@]3(COS(N)(=O)=O)OC(C)(C)O[C@@H]23)O1 [topiramate]
- water solubility: 1%
